Source: patent US20030134398A1, “Mitomycin biosynthetic gene cluster” (priority 2001, published 2003)
Where “and” joins values, the source holds several entries; their conditions need not be identical. Equal values may be shown once. Read-outs that look alike come from different tables or passages of the source.

Columns and labels:
MitM [1] = target: T1, MitM (Streptomyces lavendulae, UniProt Q9X5Q9); type: biochemical, S. lavendulae; details: Example 4; with SAM
MitN = MitN (Streptomyces lavendulae, UniProt Q9X5Q8); assay: Enzyme assay and kinetic measurement, aziridine N-methyltransferase (Example 5); type: biochemical, S. lavendulae; details: for conversion of candidate substrate by MitN: in the presence of SAM, TLC/HPLC
Protocol: (§1) pDHS7801 and pDHS7802 were transforned into E. coli BL21 (DE3) strain for the overexpression of MitM and MitN, respectively. E. coli cells were grown at 37° C. in NZCM broth containing 50 μg/ml kanamycin until OD600=0.6. Expression of MitM (or MitN) was induced by adding IPTG to a final concentration of 0.1 mM and reducing the temperature to 25° C. After incubating the culture overnight, cells were harvested, suspended in ice-cooled lysis buffer (50 mM NaH2PO4, pH 8.0; 300 mM NaCl; 10 mM imidazole), and lysed by sonication (6×10 seconds with 10 second pauses at 200-300 W). The supernatant collected by centrifuging the lysate at 10,000 g at 4° C. was used to pass through a Qiagen Ni-NTA column as specified by the manufacturer. The column was […] twice with wash buffer (50 mM NaH2PO4, pH 8.0; 300 mM NaCl; 20 mM imidazole) followed by dissolving the protein in elution buffer (50 mM NaH2PO4, pH 8.0; 300 mM NaCl; 250 mM imidazole). The protein eluted from the column was then precipitated with 60% ammonia sulfate, desalted by passing through a Pharmacia PD-10 column, and dissolved in 50 mM pH7.4 potassium buffer with 1 mM PMSF. The protein concentration was determined using the Bradford Assay with BSA as the standard.
(§2) The reactions were incubated at 30° C. for 30 minutes and were terminated by twice equal volume of ethyl acetate extraction.
(§3) The calculations were carried out using Kcat computer program by fitting the data to a Michaelis-Menton equation by linear regression.

MitM [2] = target: T1, MitM; assay: as above; type: biochemical, S. lavendulae; details: for conversion of candidate substrate by MitM: in the presence of SAM, TLC/HPLC
Protocol: as §1, §2, §3

[3] = test system: E. coli BL21 (DE3)::pET17b (vector control)
Protocol: (§4) The cultures were grown overnight at 37° C. and colony-forming units (CFUs) were determined.

[4] = test system: E. coli BL21(DE3)::pET17b vector control strain; assay: [^3H]-MC uptake assay; type: cell-based; details: [^3H]-MC 0.022 μg/ml
Protocol: (§5) [^3H]-MC uptake assay of strains PJS102 and PJS103. [^3H]-MC was obtained from Kyowa Hakko Kogyo, Ltd. Uptake studies were performed for whole cells of PJS100, PJS102, PJS103 and E. coli BL21 (DE3)::pT7SC and pET17b. PJS100, PJS102, and PJS103 as well as vectoronly cultures were cultured (37° C.) in 5 ml of NCZYM medium with IPTG added to a final concentration of 1 mM (at approximately 3 hours growth). At 9 hours (late exponential phase), cells were harvested by centrifugation and resuspended in 1 ml NCZYM broth (5×concentration). The concentrated suspension of late-exponential growth phase cells was exposed to [^3H]-MC (59 Ci/mmol) at a final concentration of 0.022 μg/ml (0.0655 nmol). Aliquots (100 μl) were removed at frequent intervals, placed on […] GF/C filters (Whatman International, Maidstone, U.K.) and washed once with 6 ml of 0.85% NaCl poured over the filters under vacuum pressure. Additional aliquots were simultaneously removed for determination of protein content (protein assay kit, Bio-Rad Laboratories, Richmond, Calif.). Radioactivity on the filters was quantified using a Beclkan LS7000 scintillation counter. Results were expressed as nanograins of mitomycin per milligram of cell protein.
(§6) MC uptake by E. coli cells expressing mct, mrd or mct/mrd. Since the deduced amino acid sequence of the mct gene was similar to antibiotic export proteins, reduced accumulation of MC in MCT-expressing cells would be expected. An assay, modeled after experiments used to study tetracycline efflux-mediated resistance in E. coli (Levy and McMurry, 1978), was designed to study the uptake of [^3H]-MC by the susceptible vector control and resistant mct, mrd and mct/mrd expressing E. coli strains.

E. coli strain PJS100 = assay: [^3H]-MC uptake assay; type: cell-based; details: at 30 minutes
Protocol: as §5, §6

E. coli strain PJS103 = assay: [^3H]-MC uptake assay; type: cell-based
Protocol: as §5, §6

E. coli strain PJS102 = assay: [^3H]-MC uptake assay; type: cell-based; details: at 5 minutes; [^3H]-MC 0.022 μg/ml
Protocol: as §5, §6

S. lavendulae wild-type = assay: Resistance of S. lavendulae strains to MC, plate count; type: cell-based, Streptomyces lavendulae
Description: To establish a physiological role for MCT in S. lavendulae, the corresponding gene (mct) was inactivated by insertion of the aphII gene from transposon Tn5 to give pDHS7704.

[5] = test system: E. coli strain PJS100 (mrd expressing); assay: MC resistance phenotype of E. coli, plate count; type: cell-based
Description: MC resistance phenotppe of E. coli.

[6] = test system: E. coli strain PJS103 (mct-mrd co-expressing)
Protocol: Construction of mct-mrd co-expression plasmid. […] The fragment contained the mrd gene under the control of the T7 promoter, including transcriptional terminator sequences (rrnB T1) upstream and downstream of mrd.
as §4

[7] = test system: E. coli strain PJS102 (mct expressing); assay: MC resistance phenotype of E. coli, plate count; type: cell-based
Protocol: Construction of mct expression plasmid. For the construction of the E. coli expression plasmid NdeI and HindIII sites were introduced at the translational start codon and downstream of the translational stop codon of mct, respectively. […] The PCR was carried out using 2.5 U of Taq polymerase, 0.4 μg of each primer, 1 μg of pDHS7661 DNA as template, […] each of dATP-dGTP-dCTP-dTTP, 1.5 mM MgCl2, and 10 μl of 10×Promega PCR buffer in a total volume of 100 μl .
as §4

[8] = target: 31-O-demethylFK506 O-methyltransferase (FKMT) (Streptomyces tacrolimicus, UniProt P74838); details: read-out: Km for SAM; cited from earlier work
[9] = target: carminomycin O-methyltransferase (CMT) (Streptomyces sp., UniProt Q55216); details: read-out: Km for SAM; cited from earlier work
[10] = test system: 31-O-desmethylimmunomycin O-methyltransferase (DIMT); details: read-out: Km for SAM; cited from earlier work
[11] = target: macrocin O-methyltransferase (MOMT) (Streptomyces fradiae, UniProt Q9S4D5); details: read-out: Km for SAM; cited from earlier work
[12] = target: demethylmacrocin O-methyltransferase (DMOMT) (Streptomyces fradiae, UniProt Q9ZHQ4); details: read-out: Km for SAM; cited from earlier work
[13] = test system: C[S+](CC[C@H](N)C(=O)O)C[C@H]1O[C@@H](n2cnc3c(N)ncnc32)[C@H](O)[C@@H]1O; assay: purified protein, by the assay type

In the case of `COC1=C(C)C(=O)C2=C(C1=O)[C@@H](COC(N)=O)[C@H]1[C@H]3N[C@H]3CN21` [9a-demethoxy mitomycin A], the “enzymatic conversion (methylation) by MitM” value (“enzymatic conversion” below) (MitM [1]) is reported as “methylate specifically the aziridine nitrogen”.
In the case of `COC1=C(C)C(=O)C2=C(C1=O)[C@@H](COC(N)=O)[C@@]1(OC)[C@H]3N[C@H]3CN21` [MA, mitomycin A], the “enzymatic conversion” value (MitM [1]) is reported as “methylated at the aziridine nitrogen”, the “Vmax for MA” value (MitN; MitN, pH 7.4, SAM fixed 200 μM) is reported as 75.9 ± 2.4 nmol/mg/min and the “conversion of candidate substrate by MitN” value (shortened to “conversion … by MitN”) (MitN) is reported as “new product was formed”. For the same compound, the Km (MitN; read-out: Km for MA, MitN, pH 7.4, SAM fixed 200 μM, MA 30-300 μM) was 94.7 µM and 95 µM, the “Vmax for MA” value (MitM [2]; MitM, pH 7.4, SAM fixed 200 μM) was 57.4 ± 4.2 nmol/mg/min and the “conversion of candidate substrate by MitM” value (MitM [2]) was “new product was formed”. For the same compound, the Km (MitM [2]; read-out: Km for MA, MitM, pH 7.4, SAM fixed 200 μM, MA 30-300 μM) was 169 µM.
In the case of `CO[C@@]12[C@H](COC(N)=O)C3=C(C(=O)C(C)=C(N)C3=O)N1C[C@@H]1N[C@@H]12` [MC, mitomycin C], the “Plate count CFU/ml” value ([3]; MC 0.01 μg/ml) is reported as >10^7 CFU/ml, the “Plate count CFU/ml” value ([3]; MC 0.1 μg/ml) is reported as 7.3 × 10^3 CFU/ml and the “Plate count CFU/ml” value ([3]; MC 0.5 μg/ml) is reported as 3.2 × 10^2 CFU/ml. The “Plate count CFU/ml” value ([3]; MC 1.0 μg/ml) was 0.0 CFU/ml, the “enzymatic conversion” value (MitM [1]) was “no conversion products were observed” and the “time at which MC accumulation reaches maximum level” value [4] was 5 min. For the same compound, the “MC accumulation, % higher than the drug-sensitive vector control” value (E. coli strain PJS100) was 42%, the “MC accumulation as % of E. coli cells bearing vector alone” value (E. coli strain PJS103; at 5 minutes, [^3H]-MC 0.022 μg/ml) was 35% and the “MC accumulation, % greater than strain PJS102” value (E. coli strain PJS103; over the course of the experiment) was “about 23%”. The “MC accumulation as % of the susceptible control” value (E. coli strain PJS102) was 25%, the “conversion … by MitN” value (MitN) was “no conversions were detected” and the “conversion of candidate substrate by MitM” value (MitM [2]) was “no conversions were detected”. The “MC resistance level of the wild-type S. lavendulae” value (S. lavendulae wild-type) was > 150 μg(ml, the “Plate count CFU/ml” value (S. lavendulae wild-type; MC 40 μg/ml) was 5.3 × 10^3 CFU/ml and the “Plate count CFU/ml” value (S. lavendulae wild-type; MC 100 μg/ml) was 2.0 × 10^3 CFU/ml. For the same compound, the “Plate count CFU/ml” value ([5]; MC 1.0 μg/ml) was 3.3 × 10^6 CFU/ml, the “Plate count CFU/ml” value ([5]; MC 5.0 μg/ml) was 2.7 × 10^6 CFU/ml and the “Plate count CFU/ml” value ([5]; MC 10 μg/ml) was 6.1 × 10^5 CFU/ml. For the same compound, the “Plate count CFU/ml” value ([5]; MC 20 μg/ml) was 2.5 × 10^5 CFU/ml, the “Plate count CFU/ml” value ([5]; MC 30 μg/ml) was 5.0 × 10^2 CFU/ml and the “Plate count CFU/ml” value ([5]; MC 60 μg/ml) was 0.0 CFU/ml. For the same compound, the “Plate count CFU/ml” value ([6]; MC 80 μg/ml) was 1.4 × 10^5 CFU/ml, the “Plate count CFU/ml” value ([6]; MC 100 μg/ml) was 9.6 × 10^3 CFU/ml and the “Plate count CFU/ml” value ([6]; MC 150 μg/ml) was 3.0 × 10^1 CFU/ml. The “Plate count CFU/ml” value ([7]; MC 0.5 μg/ml) was 2.1 × 10^5 CFU/ml, the “Plate count CFU/ml” value ([7]; MC 1.0 μg/ml) was 5.9 × 10^4 CFU/ml and the “Plate count CFU/ml” value ([7]; MC 2.5 μg/ml) was 2.0 × 10^2 CFU/ml. For the same compound, the “Plate count CFU/ml” value ([7]; MC 5.0 μg/ml) was 0.0 CFU/ml.
In the case of `CC1=C(N)C(=O)C2=C(C1=O)N1C[C@H]3[C@H](N3C)[C@]1(O)[C@H]2COC(N)=O` (stereo partly shown) [MD, mitomycin D], the “enzymatic conversion” value (MitM [1]) is reported as “no conversion products were observed”, the “conversion … by MitN” value (MitN) is reported as “no conversions were detected” and the “conversion of candidate substrate by MitM” value (MitM [2]) is reported as “no conversions were detected”.
With `C=C1C2=C(C(=O)C(C)=C(OC)C2=O)N2C[C@H]3[C@H](N3C)[C@]12O` (stereo partly shown) [MH, mitomycin H] the “conversion … by MitN” value (MitN) was “no conversions were detected” and the “conversion of candidate substrate by MitM” value (MitM [2]) was “no conversions were detected”.
For `COC1=C(C)C(=O)C2=C(C1=O)[C@H](COC(N)=O)[C@@]1(O)[C@@H]3[C@H](CN21)N3C` (stereo partly shown) [Mitomycin B, mitomycin B], the “enzymatic conversion” value (MitM [1]) was “no conversion products were observed”, the “conversion … by MitN” value (MitN) was “no conversions were detected” and the “conversion of candidate substrate by MitM” value (MitM [2]) was “no conversions were detected”. The “Plate count CFU/ml” value ([5]; Mitomycin B tested at a concentration of 1.0 μg/ml) was >10^7b CFU/ml, the “resistance of strain PJS103 to mitomycin B” value [6] was “high-level resistance” and the “Plate count CFU/ml” value ([6]; Mitomycin B tested at a concentration of 15 μg/ml) was >10^7d CFU/ml.
For `C[S+](CC[C@H](N)C(=O)O)C[C@H]1O[C@@H](n2cnc3c(N)ncnc32)[C@H](O)[C@@H]1O` (stereo partly drawn) [SAM, S-adenosyl-L-methionine], the Km [8] is listed as 28 µM, the Km [9] is listed as 25 µM and the “Vmax for SAM” value (MitN; MitN, pH 7.4, MA fixed 200 μM) is listed as 49.4 ± 5.3 nmol/mg/min. For the same compound, the “Vmax for SAM” value (MitM [2]; MitM, pH 7.4, MA fixed 200 μM) was 29.8 ± 4.5 nmol/mg/min, the Km [10] was 13 µM and the Km [11] was 23 µM. The Km [12] was 111 µM.
For MitM (Streptomyces lavendulae), the Km ([13]; other: MitM, 400 μM mitomycin A, pH 7.0) was 30 µM and the Km ([13]; other: MitM, pH 7.4, MA fixed 200 μM, SAM 40-400 μM, pH 7.4) was 22.8 µM and 23 µM.
With MitN (Streptomyces lavendulae) the Km ([13]; other: MitN, pH 7.4, MA fixed 200 μM, SAM 40-400 μM, pH 7.4) was 86.6 µM and 87 µM.
For mitomycin G, the “enzymatic conversion” value (MitM [1]) was “no conversion products were observed”.
